The subject of assay [1] is transposon gene (430 bp, Sequence Number 1) in calli derived from Nihonbare seeds. In words: PCR detection of deletion (transposition) of the nonautonomous transposon gene in seed-derived calli grown on 5-azacytidine medium (Example 5). It counts as cell-based, rice (Oryza sativa), cultivar Nihonbare. How it is done:
Seeds of Nihonbare were sterilized in 3% sodium hypochlorite solution for 15˜30 min, washed with sterilized water, inoculated on a 90×20 mm of Petri dish (Iwaki Co.) containing 20˜30 ml of media at the rate of 9 seeds per dish and subjected to induction culture under light for 24 h at 30° C. We used a solid medium consisting of 4 g of CHU (N6) BASAL SALT MIXTURE® (Sigma Co.), 1 ml of MS VITAMIN SOLUTION® (Sigma Co.), 2 mg of 2,4-dichloro-phenoxyacetic acid (Sigma Co.), 0.3 g of casamino acids (DIFCO), 0.1 g of myo-inositol (Sigma Co.), 2.878 g proline (Wako), 30 g of sucrose (Wako), 2 g of Gelrite® (Wako) in 1 L of medium.
After several days, calli were started forming from scutellum inside rice seeds and changed to cream-colored ones with 5 mm length on the 10th day of culture. The creamy-colored calli with 5mm length were transplanted to growth media supplemented with 5-azacytidine (Sigma Co.) at either 0 mM, 0.01 mM, 0.03 mM, 0.05 mM, 0.1 mM or 0.3 mM, respectively, and subjected to growth culture under light for 24 h at 30° C. We used a solid medium consisting of 4 g of CHU (N6) BASAL SALT MIXTURE® (Sigma Co.), 1 ml of MS VITAMIN SOLUTION® (Sigma Co.), 2 mg of 2, 4-dichloro-phenoxyacetic acid (Sigma Co.), 0.3 g of casamino acids (DIFCO), 0.1 g of myo-inositol (Sigma Co.), 2.878 g proline (Wako), 30 g of sucrose (Wako), 2 g of GELRITE® (Wako) in 1 L of medium. […]

Assay [2] relates to transposon gene with the nucleotide sequence of Sequence Number 3 in scutellum-derived calli. Briefly: PCR detection of deletion (transposition) of the autonomous transposon gene in scutellum-derived calli treated with 5-azacytidine (Example 9). The format is cell-based, rice (Oryza sativa), cultivar Nihonbare. The conditions noted are these: for The frequency of deletion (calli with deletion/calli examined) / The frequency of deletion (percent): scutellum-derived Nihonbare calli, 2 weeks growth culture. How it is done: In this example, we examined the transposition activity of the nucleotide sequence of Sequence Number 3 in anther-derived calli and in scutellum-derived calli treated with 5-azacytidine.
Seeds of Nihonbare, a rice cultivar, were sterilized in3% sodium hypochlorite solution for 15˜30 min, washed with sterilized water, inoculated on a 90×20 mm of Petri dish (Iwaki Co.) with 20˜30 ml of media at the rate of 9 seeds per dish and subjected to induction culture under light for 24 h at 30° C. Used was a solid medium consisting of 4 g of CHU (N6) BASAL SALT MIXTURE® (Sigma Co.), 1 ml of MS VITAMIN SOLUTION® (Sigma Co.), 2 mg of 2,4-dichloro-phenoxyacetic acid (Sigma Co.), 0.3 g of casamino acids (DIFCO), 0.1 g of myo-inositol (Sigma Co.), 2.878 g proline (Wako), 30 g of sucrose (Wako), 2 g of GELRITE® (Wako) in 1 L of medium. On the 10th day of inductive culture, the calli derived from induced seeds were transferred to a growth medium supplemented with 5-azacytidine (Sigma) at 0 mM, 0.1 mM or 0.5 mM and were subjected to growth culture underlight for 24 h at 33° C. Used was a solid medium consisting of 4 g of CHU (N6) BASAL SALT MIXTURE® (Sigma Co.), 1 ml of MS VITAMIN SOLUTION® (Sigma Co.), 2 mg of 2,4-dichloro-phenoxyacetic acid (Sigma Co.), 0.3 g of casamino acids (DIFCO), 0.1 g of myo-inositol (Sigma Co.), 2.878 g proline (Wako), 30 g of sucrose (Wako), 2 g of GELRITE® (Wako) in 1 L of medium. DNA was extracted from calli derived from seeds in growth culture for two weeks by DNEASY PLANT MINI KIT® (Qiagen).
To amplify the DNA region containing the transposon DNA by PCR, we used the oligonucleotides comprising the sequences of Sequence Numbers 26 and 27 as PCR primers. Each reaction mixture (100 μl) contained 200 ng of DNA, 2.5 units of TAKARA LA TAQ® (Takara Co.), 10 μl of 10× LA PCR bufferII, 6 µl of 25 mM MgCl2, 8 μl of dNTP Mixture (2.5mM each dNTP) and 100 pmol of primers. Each cycle of the polymerase reaction consisted of a denaturation step at 94° C. for 30 sec and an extension step at 68° C. for 12 min. This cycle was repeated 35 times. After the reaction, PCR products were separated on 0.8% LO3 AGAROSE® (Takara Co.) gel electrophoresis.

Turning to `Nc1ncn([C@@H]2O[C@H](CO)[C@@H](O)[C@H]2O)c(=O)n1` [5-azacytidine], in assay [1] (seed-derived Nihonbare calli, 0.03 mM-0.3 mM 5-azacytidine in growth medium, 2 weeks growth culture), the “DNA bands in PCR of the region containing the transposon gene (approx. 300 bp band = transposon gene deleted)” value is “Two DNA bands of approximately 730 bp and 300 bp were observed”. For the same molecule, the “Induction of transposition of the transposon gene” value in assay [1] (seed-derived calli, 5-azacytidine treatment) is “could be induced even for seed-derived calli”. The “The frequency of deletion (calli with deletion/calli examined)” value is given as 2/8 in assay [2] (0.1 mM 5-azacytidine) and 7/8 in assay [2] (0.5 mM 5-azacytidine). Moreover, the “The frequency of deletion (percent)” value in assay [2] (0.1 mM 5-azacytidine) is listed as “(25%)”; in assay [2] (0.5 mM 5-azacytidine), “(87.5%)”. Moreover, the “Transposition of the transposon gene of Sequence Number 3” value in assay [2] (scutellum-derived calli treated with 5-azacytidine) was “high frequency of transposition”.

For the origin of these results see US20060112446A1, “Transposon genes of rice, transformed plant and method of use” (priority 2001, published 2006).
